{"source": "patent US8637684B2", "about": "“Tautomycetin and tautomycetin analog biosynthesis” (Wisconsin Alumni Research Foundation, priority 2010, dated 2014)", "key": {"CD45": {"target": "T1, CD45 (Homo sapiens, UniProt P08575)", "T1 sequence (P08575 26-1306)": "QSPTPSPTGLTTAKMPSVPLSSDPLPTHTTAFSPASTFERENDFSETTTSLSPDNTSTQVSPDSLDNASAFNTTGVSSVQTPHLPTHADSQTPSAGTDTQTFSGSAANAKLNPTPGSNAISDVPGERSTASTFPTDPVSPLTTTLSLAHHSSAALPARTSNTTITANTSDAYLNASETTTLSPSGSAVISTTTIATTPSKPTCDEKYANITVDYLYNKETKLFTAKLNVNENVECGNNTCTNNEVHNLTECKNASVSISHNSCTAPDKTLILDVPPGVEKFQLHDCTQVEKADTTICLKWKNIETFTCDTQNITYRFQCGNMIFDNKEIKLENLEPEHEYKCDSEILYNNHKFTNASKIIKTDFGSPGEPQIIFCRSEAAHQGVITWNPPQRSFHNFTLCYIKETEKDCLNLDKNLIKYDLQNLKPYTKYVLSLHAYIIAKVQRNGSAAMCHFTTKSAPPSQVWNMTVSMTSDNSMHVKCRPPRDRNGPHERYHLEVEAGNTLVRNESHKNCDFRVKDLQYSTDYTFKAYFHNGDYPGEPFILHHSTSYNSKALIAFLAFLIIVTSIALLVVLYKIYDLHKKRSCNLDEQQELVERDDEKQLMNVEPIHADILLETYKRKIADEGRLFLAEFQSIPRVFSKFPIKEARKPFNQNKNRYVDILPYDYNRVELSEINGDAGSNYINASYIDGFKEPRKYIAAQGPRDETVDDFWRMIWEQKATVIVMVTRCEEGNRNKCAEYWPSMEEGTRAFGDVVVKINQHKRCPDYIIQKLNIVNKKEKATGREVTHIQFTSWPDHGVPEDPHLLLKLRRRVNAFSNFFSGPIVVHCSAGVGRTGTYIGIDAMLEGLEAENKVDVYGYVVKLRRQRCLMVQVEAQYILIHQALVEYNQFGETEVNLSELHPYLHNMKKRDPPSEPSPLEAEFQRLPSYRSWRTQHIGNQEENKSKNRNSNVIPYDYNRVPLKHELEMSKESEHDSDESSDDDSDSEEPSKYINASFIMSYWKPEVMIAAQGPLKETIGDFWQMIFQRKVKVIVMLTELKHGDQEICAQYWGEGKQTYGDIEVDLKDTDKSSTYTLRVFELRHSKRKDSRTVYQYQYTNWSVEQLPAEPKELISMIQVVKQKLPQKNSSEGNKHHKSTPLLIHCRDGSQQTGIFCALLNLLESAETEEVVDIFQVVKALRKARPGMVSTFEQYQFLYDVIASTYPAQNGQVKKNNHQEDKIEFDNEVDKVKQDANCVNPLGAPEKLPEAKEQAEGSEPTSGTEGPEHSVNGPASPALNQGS", "assay": "PTP activity assay with pNPP as substrate: CD45", "assay_type": "biochemical", "settings": "pNPP as substrate at Km, pH 7.0, 25° C., I = 0.15 M", "description": "The PTP activity was assayed using pNPP as a substrate at 25° C. in 50 mM 3,3-dimethylglutarate buffer, pH 7.0, containing 1 mM EDTA with an ionic strength of 0.15 M adjusted by NaCl. TTM, TTN and the engineered analogs were analyzed for inhibition of a panel of PTPs at 10 μM compound concentration. For each enzyme screened, test compounds were diluted to 20 μM in 100 μL and combined with 50 μL pNPP at a concentration of 4×Km. The reaction was initiated by the addition of 50 μL of 4× concentrated enzyme and pNPP was allowed to convert to the product p-nitrophenol. The reaction was quenched by the addition of 50 μL of 5N NaOH. Nonenzymatic hydrolysis of pNPP was corrected by measuring the control without the addition of enzyme. Production of p-nitrophenol was monitored by a Spectra MAX385 microplate spectrophotometer (Molecular Devices) at 405 nm using a molar extinction coefficient of 18,000 M^−1 cm^−1. IC50 values were calculated by fitting the absorbance at 405 nm versus inhibitor concentration to the following equation: AI/A0=IC50/(IC50+[I]) where AI is the absorbance at 405 nm of the sample in the presence of inhibitor; Ao is the absorbance at 405 nm in the absence of inhibitor; and [I] is the concentration of the inhibitor."}, "T cell proliferation": {"tested_on": "T cell proliferation", "settings": "relative to cyclosporine A (CsA); cited from earlier work"}, "PP2A": {"tested_on": "PP2A", "settings": "literature values; cited from earlier work"}, "[1]": {"tested_on": "TCR-mediated ERK1/2 activation in Jurkat T cells", "assay": "Anti-CD3 (TCR) induced ERK1/2 activation in Jurkat T cells, immunoblot", "assay_type": "cell-based", "settings": "2 hours pretreatment, anti-CD3 stimulation", "procedure": "Jurkat T cells were grown at 37° C. under an atmosphere of 5% CO2 in RPMI medium 1640 supplemented with 10% FBS. Cells were pretreated with different concentrations of TTN, TTN D-1, or TTM for 2 hours and stimulated with […] anti-CD3 antibody (OKT3; eBioscience) for 5 min and 30 min, respectively. Subsequently, cells were spinned down at 2000 rpm in 4° C., and cell pellets were lysed in 50 mM Tris-HCl (pH 7.5), 150 mM NaCl, 10% glycerol, 1% NP-40, 50 mM NaF, 10 mM pyrophosphate, 5 mM idoacetate, 1 mM sodium orthovanadate, and the protease inhibitor mixture. After 30 min lysing on ice, the cell lysates were centrifuged at 13,200 rpm for 15 min. Total cellular proteins were separated by SDS/PAGE and transferred electrophoretically to nitrocellulose membrane, which was immunoblotted by appropriate antibodies followed by incubation with HRP-conjugated secondary antibodies. Blots were developed using Pierce Pico ECL reagent (Thermo) according to the manufacturer's instructions.\nTTN induces immunosuppression by suppression of TCR-mediated tyrosine phosphorylation and ERK1/2 activity in T cells (Shim et al., 2002). However, the mechanism of action for TTN's ability to block TCR signaling remains undefined. […]"}}}
{"substance": "tautomycetin [TTN]", "values": [{"measurement": "IC50", "setting": "CD45", "result": "> 50000", "unit": "nM"}, {"measurement": "concentration for inhibition of T cell proliferation, lower than that for maximal inhibition by cyclosporine A", "setting": "T cell proliferation", "result": 100, "unit": "fold"}, {"measurement": "IC50", "setting": "PP2A", "result": 62, "unit": "nM"}, {"measurement": "effect on TCR-mediated ERK1/2 activation", "setting": "[1]", "result": "strongly reduced"}]}
